Conditions: pH 7.4
Method: As a bioactive substance, flavone (manufactured by Tokyo Chemical Industry Co., Ltd., NO. H0721) was used.
Any substance in the substance group A and a bioactive substance were added to 10 mL of distilled water and mixed to prepare a solution (or suspension), which was used as a test liquid. The substance in the substance group A was added in an amount such that the concentration in the test liquid was 10 mg/mL. The bioactive substance was added in an amount such that the concentration in the test liquid was 250 µg/mL. As a control, a test liquid (flavone only) to which a substance in the substance group A was not added was also prepared.
A receptor part of a Franz-type vertical diffusion cell was filled with a phosphate buffer (pH 7.4) containing 0.5% sodium taurocholate, and a Strat-M membrane for a transdermal diffusion test (manufactured by Merck) was attached as a permeable membrane. After 400 µL of the test liquid was dropped on the donor side, a receptor liquid was sampled over time. The amount of the bioactive substance in the sampled receptor liquid was quantified by high performance liquid chromatography. The experiment was performed with N = 1.

skin permeation amount of flavone: hardly changed
Compound: C[C@@H]1O[C@@H](O[C@H]2[C@H](Oc3cc(O)c4c(c3)O[C@H](c3ccc(O)cc3)CC4=O)O[C@H](CO)[C@@H](O)[C@@H]2O)[C@H](O)[C@H](O)[C@H]1O [naringin, Naringin]

Source: EP4755386A1, “SKIN PERMEATION PROMOTER AND SKIN PERMEATION PROMOTION METHOD” (Toyo Sugar Refining Co., Ltd., priority 2023, dated 2025)
